The results in this text go back to PubChem BioAssay AID434987 (Southern Research Specialized Biocontainment Screening …, 2010).

The source made the active and inactive calls. How the calls were made is not given here. Some results are limits rather than exact numbers.

This experiment has as its system M. tuberculosis H37Rv growth inhibition with meropenem. Briefly: dose response, H37Rv, with and without meropenem (AID 434987).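 Further: growth over 7 days at 37 °C before Alamar Blue read on day 9.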
Setting [1] is: M. tuberculosis H37Rv growth inhibition, measured here: IC50 without meropenem.
Where [2] appears, read: M. tuberculosis H37Rv growth inhibition, measured here: IC90 without meropenem.
[3] abbreviates: measured here: IC90 with meropenem.

By IC50 is commonly meant the midpoint of a concentration-inhibition curve. By IC90 is commonly meant the concentration needed for an effect of 90%. A lower IC90 goes with greater potency. On to `O=c1oc(-c2cccs2)nc2sc3c(c12)CCCC3`, for which the IC50 was 22.2 µM. Further, the IC50 under setting [1] was above 100 µM. Besides, the IC90 under setting [2] was above 100 µM. The molecule further registered an IC90 under setting [3] of 29.7 µM.

For the molecule `COc1ccc(C(=O)/C=C/c2cccs2)c(OC(=O)c2cccc([N+](=O)[O-])c2)c1`, the IC50 was 29.5 µM (inactive). The IC50 under setting [1] came out at 54.8 µM. Under setting [2], this molecule registered an IC90 of 85.2 µM. The IC90 under setting [3] was above 100 µM.

On to `COc1cccc(-n2c([S-])c(C(=O)Nc3ccc(S(=O)(=O)N4CCOCC4)cc3)[n+]3cc(C(N)=O)ccc23)c1`, for which the IC50 was > 100 µM (inactive). Further, under setting [1], the 50% inhibitory concentration (IC50) was above 100 µM. Besides, the IC90 under setting [2] was above 100 µM. For the same molecule, the IC90 under setting [3] is above 100 µM.

Turning to `Cc1cccc(NC(=O)Cn2c(=O)n(Cc3ccccc3)c(=O)c3c(C)c(C)sc32)c1`, the IC50 is > 100 µM (inactive). Further, the IC50 under setting [1] is above 100 µM. The molecule further showed an IC90 under setting [2] above 100 µM. The IC90 under setting [3] is above 100 µM.

As for `O=c1oc(-c2ccccc2)nc2sc3c(c12)CCC3`, the IC50 was 32.2 µM. The half-inhibitory concentration (IC50) under setting [1] is above 100 µM. Besides, under setting [2], the IC90 was above 100 µM. The molecule further registered an IC90 under setting [3] above 100 µM.

As to `O=C(Nc1cccc2ccccc12)N1CCCN(c2c(Cl)cncc2Cl)CC1`, the IC50 was > 100 µM (inactive). Under setting [1], this molecule had an IC50 above 100 µM. The molecule also showed an IC90 under setting [2] above 100 µM. Under setting [3], this molecule returned an IC90 above 100 µM.

With `CCC(CC)C(=O)Nc1ccc(Sc2ccc([N+](=O)[O-])cc2)cc1`, the IC50 was > 100 µM (inactive). Besides, the IC50 under setting [1] was above 100 µM. The same molecule yielded an IC90 under setting [2] above 100 µM. The IC90 under setting [3] was above 100 µM.

As for `CC/C(=N\NC(=S)NC(C)C)c1ccc(OC)c(OC)c1`, the IC50 is 12.9 µM (inactive). For the same molecule, the IC50 under setting [1] came out at 20.2 µM. Under setting [2], this molecule showed an IC90 of 24.7 µM. In addition, the IC90 under setting [3] turned out to be 15.5 µM.

`O=C(Nc1ccccc1)c1c2c(nc3ccccc13)CCCC2`: the IC50 was 17.1 µM. In addition, the IC50 under setting [1] is above 100 µM. Also, the IC90 under setting [2] was above 100 µM. Further, the IC90 under setting [3] is above 25 µM.

As for `Cc1oc(C(C)(C)C)cc1C(=O)Nc1ccc2c(c1)OCCO2`, the IC50 was > 100 µM (inactive). The same molecule yielded a 50% inhibitory concentration (IC50) under setting [1] above 100 µM. The same molecule returned an IC90 under setting [2] above 100 µM. The same molecule yielded an IC90 under setting [3] above 100 µM.

As to `Cc1sc2nc(C(C)(C)C)oc(=O)c2c1C`, the IC50 is > 100 µM (inactive). Besides, under setting [1], the IC50 was above 100 µM. Also, the IC90 under setting [2] is above 100 µM. The molecule further had an IC90 under setting [3] above 100 µM.

As to `COc1cc(CNc2ccc(NC(C)=O)cc2)ccc1OCc1ccccc1C`, the IC50 was > 100 µM (inactive). The same molecule showed an IC50 under setting [1] above 100 µM. Also, the concentration for an effect of 90% (IC90) under setting [2] is above 100 µM. Besides, the IC90 under setting [3] is above 100 µM.

For the molecule `CCCCOc1ccc(/C=N/Nc2cc(N3CCOCC3)nc(C)n2)cc1`, the IC50 is > 100 µM (inactive). This molecule also showed an IC50 under setting [1] above 100 µM. The IC90 under setting [2] is above 100 µM. Under setting [3], the 90% effect concentration (IC90) is above 100 µM.

Turning to `C/C(=N\NC(=O)c1cc2c(s1)CCC(C)C2)c1ccc[nH]1` (stereo not drawn), the IC50 is 6.51 µM. The molecule further had an IC50 under setting [1] above 100 µM. Under setting [2], this molecule yielded an IC90 above 100 µM. Further, the IC90 under setting [3] is above 100 µM.

In the case of `Cc1cc(NC(=O)CSc2ncnc3c2cnn3-c2ccccc2)no1`, the IC50 is > 100 µM (inactive). The molecule further had an IC50 under setting [1] above 100 µM. Under setting [2], this molecule showed an IC90 above 100 µM. In addition, under setting [3], the IC90 is above 100 µM.

Regarding `O=C(NN1C(=O)c2cc(Br)ccc2NC1c1ccccc1Cl)c1ccncc1` (stereo not drawn), the IC50 was 12.5 µM. In addition, under setting [1], the IC50 was determined as 35 µM. This molecule registered an IC90 under setting [2] of 50.7 µM. Moreover, under setting [3], the IC90 came out at 13.7 µM.

For the molecule `CN(C)C1=C(Cl)C(=O)N(c2ccc(Cl)c(Cl)c2)C1=O`, the IC50 was 2.73 µM. In addition, under setting [1], the IC50 was 7.91 µM. The molecule further showed an IC90 under setting [2] of 24 µM. Under setting [3], this molecule showed an IC90 of 14.9 µM.

As for `O=C1C(Cl)=C(N2CCCCCC2)C(=O)N1c1ccc(Br)cc1`, the IC50 was 7.59 µM (inactive). This molecule gave an IC50 under setting [1] of 18.3 µM. The IC90 under setting [2] was above 100 µM. The molecule further gave an IC90 under setting [3] of 19.4 µM.

Regarding `Cc1cc2c(=O)oc(-c3ccc(Br)cc3)nc2s1`, the IC50 is > 100 µM (inactive). The molecule also returned an IC50 under setting [1] above 100 µM. This molecule also registered an IC90 under setting [2] above 100 µM. The molecule also had an IC90 under setting [3] above 100 µM.

On to `O=c1[nH]c(C2CCN(S(=O)(=O)c3ccc(S(=O)(=O)NC4CC4)cc3)CC2)nc2c1nnn2Cc1ccc(F)cc1`, for which the IC50 is > 100 µM (inactive). The IC50 under setting [1] is above 100 µM. Further, the concentration for an effect of 90% (IC90) under setting [2] is above 100 µM. Under setting [3], the IC90 was above 100 µM.

For `CN1C/C(=N\S(=O)(=O)c2ccccc2)N(C)C1=O`, the IC50 is 13 µM (inactive). For the same molecule, the half-maximal inhibitory concentration (IC50) under setting [1] is 23.6 µM. The IC90 under setting [2] came out at 46.7 µM. Under setting [3], this molecule showed an IC90 of 33.7 µM.

As to `COc1cc(OC)cc(-c2c(C#Cc3ccsc3)c3cc(-c4ccc(OC)nc4)ccc3n2C)c1`, the IC50 was > 100 µM (inactive). This molecule returned an IC50 under setting [1] above 100 µM. Under setting [2], the concentration for an effect of 90% (IC90) is above 100 µM. Moreover, the IC90 under setting [3] is above 100 µM.

With `CCCC(C)NC(=O)c1ccccc1SC` (stereo not drawn), the IC50 is 36.4 µM (inactive). Moreover, under setting [1], the IC50 was 58.5 µM. Under setting [2], this molecule displayed an IC90 above 100 µM. The molecule further displayed an IC90 under setting [3] above 100 µM.

Regarding `Cc1cc(Br)cc2c(C(=O)NCC3CCCO3)cc(-c3ccccc3)nc12` (stereo not drawn), the IC50 is 95.6 µM (inactive). Under setting [1], this molecule had an IC50 above 100 µM. Moreover, under setting [2], the IC90 was above 100 µM. The molecule further gave an IC90 under setting [3] above 100 µM.

Consider `CC(=O)c1ccccc1OCCOc1ncnc2sccc12`, for which the IC50 was > 100 µM (inactive). The molecule also gave an IC50 under setting [1] above 100 µM. In addition, the IC90 under setting [2] is above 100 µM. Moreover, the IC90 under setting [3] is above 100 µM.

In the case of `CSc1nnc(-c2ccc(NC(N)=S)cc2)o1`, the IC50 was 12.2 µM. For the same molecule, the IC50 under setting [1] is above 100 µM. Under setting [2], this molecule returned an IC90 above 100 µM. The molecule also returned an IC90 under setting [3] above 100 µM.

Take `O=C(Nc1ccc(F)cc1)c1sc2cc(C(F)(F)F)cnc2c1-c1cccs1`: the IC50 was > 100 µM (inactive). The IC50 under setting [1] was above 100 µM. For the same molecule, under setting [2], the IC90 was above 100 µM. The IC90 under setting [3] was above 100 µM.

As for `Cc1ccc(C)c(SCc2noc(C(=O)NCC3CCCO3)c2C(=O)O)c1` (stereo not drawn), the IC50 was 44.3 µM (inactive). The molecule also showed an IC50 under setting [1] of 50.7 µM. Besides, the IC90 under setting [2] was above 100 µM. Besides, the IC90 under setting [3] is 48 µM.

Turning to `COc1ccc(-c2csc(/C=C/c3ccc4c(c3)OCO4)n2)cc1OC`, the IC50 is 16.1 µM. Under setting [1], this molecule registered an IC50 above 100 µM. Moreover, the IC90 under setting [2] was above 100 µM. This molecule also came in with an IC90 under setting [3] above 100 µM.

Consider `CC[C@@](C)(NS(=O)(=O)OCC(Cl)(Cl)Cl)c1ccccc1`, for which the IC50 is 50.1 µM (inactive). Also, the IC50 under setting [1] came to 95 µM. The molecule also had an IC90 under setting [2] above 100 µM. Under setting [3], the IC90 turned out to be 54.8 µM.

Regarding `O=C(Nc1nnc(-c2ccccc2SCc2ccccc2F)s1)Nc1ccccc1F`, the IC50 was > 100 µM (inactive). This molecule yielded an IC50 under setting [1] above 100 µM. Under setting [2], this molecule came in with an IC90 above 100 µM. Under setting [3], this molecule displayed an IC90 above 100 µM.

Turning to `Cc1ccc(-n2c(SCC(=O)OC(C)C)nnc2-c2ccco2)cc1`, the IC50 was 37.6 µM (inactive). The IC50 under setting [1] was 62 µM. Moreover, the IC90 under setting [2] is above 100 µM. The IC90 under setting [3] is above 100 µM.
